Source: ChEMBL document CHEMBL1201862, “PubChem BioAssay data set” (2004)
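All cell lines were grown in 96-well plates and treated with compound for 48 hours. GI50 marks 50% less growth.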 The source made the active and inactive calls. No stated cut-off is given here; in the data, active = GI50 up to about 1.1 µM and inactive = higher.

Assays:
Test in all cases: NCI tumour cell line growth inhibition, 48 h
[1] = system: OVCAR-8
[2] = system: MOLT-4
[3] = system: DU-145
[4] = system: CAKI-1
[5] = system: BT-549
[6] = system: T47D
[7] = system: SK-MEL-2
[8] = system: NCI-H522
[9] = system: SNB-19
[10] = system: HOP-92
[11] = system: SW-620
[12] = system: K562
[13] = system: RPMI-8226
[14] = system: NCI/ADR-RES
[15] = system: SK-OV-3
[16] = system: TK-10
[17] = system: KM12
[18] = system: HCT-15
[19] = system: MDA-MB-435
[20] = system: ACHN
[21] = system: SK-MEL-5
[22] = system: HCT-116
[23] = system: SR
[24] = system: Hs-578T
[25] = system: OVCAR-3
[26] = system: NCI-H226
[27] = system: SF-295
[28] = system: A549
[29] = system: COLO 205
[30] = system: MDA-N
[31] = system: NCI-H23
[32] = system: SNB-75
[33] = system: U-251
[34] = system: HT-29
[35] = system: 786-0
[36] = system: M14
[37] = system: CCRF-CEM
[38] = system: SF-268
[39] = system: MDA-MB-231
[40] = system: OVCAR-4
[41] = system: HOP-62
[42] = system: UO-31
[43] = system: SN12C
[44] = system: LOX IMVI
[45] = system: OVCAR-5
[46] = system: SF-539
[47] = system: UACC-62
[48] = system: Malme-3M
[49] = system: MCF7
[50] = system: RXF 393
[51] = system: SK-MEL-28
[52] = system: EKVX
[53] = system: HCC 2998
[54] = system: PC-3
[55] = system: UACC-257
[56] = system: HL-60
[57] = system: NCI-H460
[58] = system: IGROV-1

For `O=C1C(Br)=CC2(C=C1Br)CCNC1=C2C(=O)c2ncccc2C1=O`, the GI50 [1] was 1440 nM (inactive), the GI50 [2] was 1830 nM (inactive) and the GI50 [3] was 1680 nM (inactive). The GI50 [4] was 1610 nM (inactive), the GI50 [5] was 1420 nM (inactive) and the GI50 [6] was 1970 nM (inactive). The GI50 [7] was 116 nM (active), the GI50 [8] was 353 nM (active) and the GI50 [9] was 1280 nM (inactive). For the same compound, the GI50 [10] was 1820 nM (inactive), the GI50 [11] was 1100 nM (active) and the GI50 [12] was 266 nM (active). The GI50 [13] was 621 nM (active), the GI50 [14] was 1820 nM (inactive) and the GI50 [15] was 2030 nM (inactive). For the same compound, the GI50 [16] was 2320 nM (inactive), the GI50 [17] was 1250 nM (inactive) and the GI50 [18] was 618 nM. The GI50 [19] was 189 nM (active), the GI50 [20] was 560 nM (active) and the GI50 [21] was 533 nM (active). The GI50 [22] was 634 nM (active), the GI50 [23] was 457 nM (active) and the GI50 [24] was 1270 nM (inactive). The GI50 [25] was 1620 nM (inactive), the GI50 [26] was 1670 nM (inactive) and the GI50 [27] was 1370 nM (inactive). The GI50 [28] was 1440 nM (inactive), the GI50 [29] was 1890 nM (inactive) and the GI50 [30] was 183 nM (active). The GI50 [31] was 390 nM (active), the GI50 [32] was 1400 nM (inactive) and the GI50 [33] was 1310 nM (inactive). For the same compound, the GI50 [34] was 1990 nM (inactive), the GI50 [35] was 1470 nM (inactive) and the GI50 [36] was 1550 nM (inactive). For the same compound, the GI50 [37] was 1580 nM (inactive), the GI50 [38] was 1490 nM (inactive) and the GI50 [39] was 1750 nM (inactive). The GI50 [40] was 1220 nM (inactive), the GI50 [41] was 542 nM (active) and the GI50 [42] was 1070 nM (active). For the same compound, the GI50 [43] was 1210 nM (inactive), the GI50 [44] was 313 nM (active) and the GI50 [45] was 1670 nM (inactive). The GI50 [46] was 318 nM (active), the GI50 [47] was 641 nM (active) and the GI50 [48] was 1090 nM (active). For the same compound, the GI50 [49] was 1140 nM (inactive), the GI50 [50] was 1000 nM (active) and the GI50 [51] was 443 nM (active). The GI50 [52] was 1650 nM (inactive), the GI50 [53] was 1980 nM (inactive) and the GI50 [54] was 1950 nM (inactive). The GI50 [55] was 631 nM (active), the GI50 [56] was 1060 nM (active) and the GI50 [57] was 308 nM (active). The GI50 [58] was 540 nM (active).
